Source: ChEMBL document CHEMBL1629649, “Multiple regulatory pathways associated with high-level ciprofloxacin and multidrug resistance in Salmonella enterica serovar enteritidis: involvement of RamA and other global regulators” (2009)
Converted amounts (≈) assume the structure as drawn. Residues, ends and D or L forms follow the SMILES beside them. *: point of attachment. βNA = c1ccc2cc(N*)ccc2c1

How the values were obtained:
[1] = test system: Salmonella enterica subsp. enterica serovar Enteritidis; assay: Inhibition of AcrAB-TolC efflux pump in Salmonella enterica serovar enteritidis isolate 51 assessed as fold increase in nalidixic acid MIC relative to control
[2] = test system: Salmonella enterica subsp. enterica serovar Enteritidis; assay: Inhibition of AcrAB-TolC efflux pump in Salmonella enterica serovar enteritidis isolate NCTC 13349 assessed as fold increase in nalidixic acid MIC relative to control
[3] = test system: Salmonella enterica subsp. enterica serovar Enteritidis; assay: Inhibition of AcrAB-TolC efflux pump in Salmonella enterica serovar enteritidis isolate 104 assessed as fold increase in tetracycline MIC relative to control
[4] = test system: Salmonella enterica subsp. enterica serovar Enteritidis; assay: Inhibition of AcrAB-TolC efflux pump in Salmonella enterica serovar enteritidis isolate 58 assessed as fold increase in ciprofloxacin MIC relative to controlphenylalanine-arginine-beta-naphthylamide
[5] = test system: Salmonella enterica subsp. enterica serovar Enteritidis; assay: Inhibition of AcrAB-TolC efflux pump in Salmonella enterica serovar enteritidis isolate 5408-cip assessed as fold increase in chloramphenicol MIC relative to control
[6] = test system: Salmonella enterica subsp. enterica serovar Enteritidis; assay: Inhibition of AcrAB-TolC efflux pump in Salmonella enterica serovar enteritidis isolate 104-cip assessed as fold increase in nalidixic acid MIC relative to control
[7] = test system: Salmonella enterica subsp. enterica serovar Enteritidis; assay: Inhibition of AcrAB-TolC efflux pump in Salmonella enterica serovar enteritidis isolate 104-cip assessed as fold increase in ciprofloxacin MIC relative to control
[8] = test system: Salmonella enterica subsp. enterica serovar Enteritidis; assay: Inhibition of AcrAB-TolC efflux pump in Salmonella enterica serovar enteritidis isolate 54 assessed as fold increase in ciprofloxacin MIC relative to control
[9] = test system: Salmonella enterica subsp. enterica serovar Enteritidis; assay: Inhibition of AcrAB-TolC efflux pump in Salmonella enterica serovar enteritidis isolate 104 assessed as fold increase in nalidixic acid MIC relative to control
[10] = test system: Salmonella enterica subsp. enterica serovar Enteritidis; assay: Inhibition of AcrAB-TolC efflux pump in Salmonella enterica serovar enteritidis isolate NCTC 13349 assessed as fold increase in ciprofloxacin MIC relative to control
[11] = test system: Salmonella enterica subsp. enterica serovar Enteritidis; assay: Inhibition of AcrAB-TolC efflux pump in Salmonella enterica serovar enteritidis isolate CUH52 assessed as fold increase in ciprofloxacin MIC relative to control
[12] = test system: Salmonella enterica subsp. enterica serovar Enteritidis; assay: Inhibition of AcrAB-TolC efflux pump in Salmonella enterica serovar enteritidis isolate 104-cip assessed as fold increase in trimethoprim-sulfamethoxazole MIC relative to control
[13] = test system: Salmonella enterica subsp. enterica serovar Enteritidis; assay: Inhibition of AcrAB-TolC efflux pump in Salmonella enterica serovar enteritidis isolate 58 assessed as fold increase in nalidixic acid MIC relative to controlphenylalanine-arginine-beta-naphthylamide
[14] = test system: Salmonella enterica subsp. enterica serovar Enteritidis; assay: Inhibition of AcrAB-TolC efflux pump in Salmonella enterica serovar enteritidis isolate 5408 assessed as fold increase in ampicillin MIC relative to control
[15] = test system: Salmonella enterica subsp. enterica serovar Enteritidis; assay: Inhibition of AcrAB-TolC efflux pump in Salmonella enterica serovar enteritidis isolate 104-cip assessed as fold increase in ampicillin MIC relative to control
[16] = test system: Salmonella enterica subsp. enterica serovar Enteritidis; assay: Inhibition of AcrAB-TolC efflux pump in Salmonella enterica serovar enteritidis isolate CUH52 assessed as fold increase in nalidixic acid MIC relative to control
[17] = test system: Salmonella enterica subsp. enterica serovar Enteritidis; assay: Inhibition of AcrAB-TolC efflux pump in Salmonella enterica serovar enteritidis isolate 5408 assessed as fold increase in tetracycline MIC relative to control
[18] = test system: Salmonella enterica subsp. enterica serovar Enteritidis; assay: Inhibition of AcrAB-TolC efflux pump in Salmonella enterica serovar enteritidis isolate CUH60 assessed as fold increase in ciprofloxacin MIC relative to control
[19] = test system: Salmonella enterica subsp. enterica serovar Enteritidis; assay: Inhibition of AcrAB-TolC efflux pump in Salmonella enterica serovar enteritidis isolate 104-cip assessed as fold increase in chloramphenicol MIC relative to control
[20] = test system: Salmonella enterica subsp. enterica serovar Enteritidis; assay: Inhibition of AcrAB-TolC efflux pump in Salmonella enterica serovar enteritidis isolate 5408-cip assessed as fold increase in ciprofloxacin MIC relative to control
[21] = test system: Salmonella enterica subsp. enterica serovar Enteritidis; assay: Inhibition of AcrAB-TolC efflux pump in ciprofloxacin-resistant Salmonella enterica serovar enteritidis isolate CUH48 assessed as fold increase in ciprofloxacin MIC relative to control
[22] = test system: Salmonella enterica subsp. enterica serovar Enteritidis; assay: Inhibition of AcrAB-TolC efflux pump in Salmonella enterica serovar enteritidis isolate 4931 assessed as fold increase in nalidixic acid MIC relative to control
[23] = test system: Salmonella enterica subsp. enterica serovar Enteritidis; assay: Inhibition of AcrAB-TolC efflux pump in Salmonella enterica serovar enteritidis isolate 5408 assessed as fold increase in ciprofloxacin MIC relative to control
[24] = test system: Salmonella enterica subsp. enterica serovar Enteritidis; assay: Inhibition of AcrAB-TolC efflux pump in Salmonella enterica serovar enteritidis isolate 5408 assessed as fold increase in nalidixic acid MIC relative to control
[25] = test system: Salmonella enterica subsp. enterica serovar Enteritidis; assay: Inhibition of AcrAB-TolC efflux pump in Salmonella enterica serovar enteritidis isolate 104-cip assessed as fold increase in tetracycline MIC relative to control
[26] = test system: Salmonella enterica subsp. enterica serovar Enteritidis; assay: Inhibition of AcrAB-TolC efflux pump in Salmonella enterica serovar enteritidis isolate 104 assessed as fold increase in ciprofloxacin MIC relative to control
[27] = test system: Salmonella enterica subsp. enterica serovar Enteritidis; assay: Inhibition of AcrAB-TolC efflux pump in Salmonella enterica serovar enteritidis isolate 5408-cip assessed as fold increase in nalidixic acid MIC relative to control
[28] = test system: Salmonella enterica subsp. enterica serovar Enteritidis; assay: Inhibition of AcrAB-TolC efflux pump in Salmonella enterica serovar enteritidis isolate 5408 assessed as fold increase in trimethoprim-sulfamethoxazole MIC relative to control
[29] = test system: Salmonella enterica subsp. enterica serovar Enteritidis; assay: Inhibition of AcrAB-TolC efflux pump in Salmonella enterica serovar enteritidis isolate 104 assessed as fold increase in trimethoprim-sulfamethoxazole MIC relative to control
[30] = test system: Salmonella enterica subsp. enterica serovar Enteritidis; assay: Inhibition of AcrAB-TolC efflux pump in Salmonella enterica serovar enteritidis isolate 104 assessed as fold increase in chloramphenicol MIC relative to control
[31] = test system: Salmonella enterica subsp. enterica serovar Enteritidis; assay: Inhibition of AcrAB-TolC efflux pump in ciprofloxacin-resistant Salmonella enterica serovar enteritidis isolate CUH48 assessed as fold increase in nalidixic acid MIC relative to control
[32] = test system: Salmonella enterica subsp. enterica serovar Enteritidis; assay: Inhibition of AcrAB-TolC efflux pump in Salmonella enterica serovar enteritidis isolate 5408 assessed as fold increase in chloramphenicol MIC relative to control
[33] = test system: Salmonella enterica subsp. enterica serovar Enteritidis; assay: Inhibition of AcrAB-TolC efflux pump in Salmonella enterica serovar enteritidis isolate 54 assessed as fold increase in nalidixic acid MIC relative to control
[34] = test system: Salmonella enterica subsp. enterica serovar Enteritidis; assay: Inhibition of AcrAB-TolC efflux pump in Salmonella enterica serovar enteritidis isolate 51 assessed as fold increase in ciprofloxacin MIC relative to control
[35] = test system: Salmonella enterica subsp. enterica serovar Enteritidis; assay: Inhibition of AcrAB-TolC efflux pump in Salmonella enterica serovar enteritidis isolate 5408-cip assessed as fold increase in ampicillin MIC relative to control
[36] = test system: Salmonella enterica subsp. enterica serovar Enteritidis; assay: Inhibition of AcrAB-TolC efflux pump in Salmonella enterica serovar enteritidis isolate 5408-cip assessed as fold increase in trimethoprim-sulfamethoxazole MIC relative to control
[37] = test system: Salmonella enterica subsp. enterica serovar Enteritidis; assay: Inhibition of AcrAB-TolC efflux pump in Salmonella enterica serovar enteritidis isolate CUH60 assessed as fold increase in nalidixic acid MIC relative to control
[38] = test system: Salmonella enterica subsp. enterica serovar Enteritidis; assay: Inhibition of AcrAB-TolC efflux pump in Salmonella enterica serovar enteritidis isolate 104 assessed as fold increase in ampicillin MIC relative to control
[39] = test system: Salmonella enterica subsp. enterica serovar Enteritidis; assay: Inhibition of AcrAB-TolC efflux pump in Salmonella enterica serovar enteritidis isolate 4931 assessed as fold increase in ciprofloxacin MIC relative to control
[40] = test system: Salmonella enterica subsp. enterica serovar Enteritidis; assay: Inhibition of AcrAB-TolC efflux pump in Salmonella enterica serovar enteritidis isolate 5408-cip assessed as fold increase in tetracycline MIC relative to control

## N=C(N)NCCC[C@H](NC(=O)[C@@H](N)Cc1ccccc1)C(=O)Nc1ccc2ccccc2c1 (H-Phe-Arg-βNA)
[1]
  Activity: 32 µg/mL
[2]
  Activity: 0.38 µg/mL
[3]
  Activity: 0.19 µg/mL
[4]
  Activity: 0.064 µg/mL
[5]
  Activity: 0.38 µg/mL
[6]
  Activity: 256 µg/mL
[7]
  Activity: 2 µg/mL
[8]
  Activity: 0.064 µg/mL
[9]
  Activity: 24 µg/mL
[10]
  Activity: 0.008 µg/mL
[11]
  Activity: 0.008 µg/mL
[12]
  Activity: 0.023 µg/mL
[13]
  Activity: 24 µg/mL
[14]
  Activity: 1 µg/mL
[15]
  Activity: 1 µg/mL
[16]
  Activity: 0.75 µg/mL
[17]
  Activity: 0.19 µg/mL
[18]
  Activity: 0.094 µg/mL
[19]
  Activity: 1 µg/mL
[20]
  Activity: 2 µg/mL
[21]
  MIC: 0.012 µg/mL
[22]
  Activity: 16 µg/mL
[23]
  Activity: 0.094 µg/mL
[24]
  Activity: 24 µg/mL
[25]
  Activity: 3 µg/mL
[26]
  Activity: 0.094 µg/mL
[27]
  Activity: 16 µg/mL
[28]
  Activity: 0.023 µg/mL
[29]
  Activity: 0.023 µg/mL
[30]
  Activity: 0.75 µg/mL
[31]
  MIC: 0.5 µg/mL (≈ 1.12 µM)
[32]
  Activity: 0.5 µg/mL
[33]
  Activity: 16 µg/mL
[34]
  Activity: 0.094 µg/mL
[35]
  Activity: 2 µg/mL
[36]
  Activity: 0.032 µg/mL
[37]
  Activity: 32 µg/mL
[38]
  Activity: 0.75 µg/mL
[39]
  Activity: 0.064 µg/mL
[40]
  Activity: 0.094 µg/mL
